# Key:
# HEK293 cells [1] = experiment: Preliminary screening as mRNA vectors, EGFP mRNA transfection of HEK293 cells; type: cell-based; conditions: HEK293 cells, 96-well plates, EGFP mRNA 50 ng per well; percentage of GFP fluorescent cells relative to total number of cells (Hoechst)
# Procedure, shortened: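 HEK293 cells in DMEM plus 10% FBS transfected in 96-well format with 50 ng EGFP mRNA per well; Lipofectamine2000 served as positive control. Read-out is the percentage of GFP-fluorescent cells among total cells, counted by Hoechst nuclear stain.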
# HEK293 cells [2] = experiment: Preliminary screening as DNA vectors, GFP transfection of HEK293 cells; type: cell-based; conditions: HEK293 cells; lipid/DOPE liposome with 75 ng plasmid DNA (psin-EGFP-IRES-Puro); number of cells expressing GFP divided by total number of nuclei (Hoechst)
# Procedure, shortened: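 HEK293 cells in DMEM/10% FBS transfected with 75 ng EGFP plasmid per well complexed with amino lipid/DOPE liposomes in pH 5.6 sodium acetate. Hoechst nuclear stain added 20-24 h post-transfection, then cells cultured another 20-24 h. Confocal imaging gives GFP-positive cells as % of total nuclei.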
Compound,Absolute mRNA transfection efficiency in HEK293 cells (HEK293 cells [1]) [%],Absolute DNA transfection efficiency in HEK293 cells (HEK293 cells [2]) [%]
CCCCCCCCCCCCNc1nc(NCCCCCC)nc(NCCCN2CCN(C)CC2)n1 [Compound N6N12D9],0.0,0.0
CCCCCCCCCCCCCCCCCCSc1nc(NCCN2CCN(C)CC2)nc(SCCCCCCCCCCCCCCCCCC)n1 [Compound S18S18D5],0.1,0.1
CCCCCCCCCCCCCCCCSc1nc(NCCN2CCCCC2)nc(SCCCCCCCCCCCCCCCC)n1 [Compound S16S16D4],2.2,1.2
CCCCCCCCCCCCCCCCCCSc1nc(NCCN(C)C)nc(SCCCCCCCC)n1 [Compound S8S18D1],3.9,7.6
CCCCCCCCCCCCCCCSc1nc(NCCN2CCCCC2)nc(SCCCCCCCCCCCC)n1 [Compound S12S15D4],3.3,3.8
CCCCCCCCCCCCN(CCCCCCCCCCCC)c1nc(NCCCCCCCC)nc(NCC2CCN(C)CC2)n1 [N8^2N12D10],2.7,0.0
CCCCCCCCCCCCCCCCCCSc1nc(NCCN(C)C)nc(SCCCCCCCCCCC)n1 [Compound S11S18D1],2.7,0.6
CCCCCCCCCCCCCCCCCCNc1nc(NCCCCCC)nc(NCCN(C)C)n1 [Compound N6N18D1],3.9,1.1
CCCCCCCCCCCCN(CCCCCCCCCCCC)c1nc(NCCCCCCC)nc(NCCCN2CCOCC2)n1 [N7^2N12D8],2.7,1.6
CCCCCCCCCCCCCCCCSc1nc(NCCN2CCN(C)CC2)nc(SCCCCCCCCCCCCCCC)n1 [Compound S15S16D5],0.2,0.2
CCCCCCCCCCCCCNc1nc(NCCCCCC)nc(NCCN2CCCC2)n1 [Compound N6N13D3],1.0,0.5
CCCCCCCCCCCCNc1nc(NCCCN2CCN(C)CC2)nc(N(CCCCCCCCCCCC)CCCCCCCCCCCC)n1 [N12^2N12D9],0.7,3.0
CCCCCCCCCCCCCCCCCCSc1nc(NCCN2CCOCC2)nc(SCCCCCCCCCCCCCCCC)n1 [Compound S16S18D2],0.0,0.0
CCCCCCCCCCCCCCCCCCNc1nc(NCCCCCCCCCCCCCCCCCC)nc(NCCCN(C)C)n1 [Compound N18N18D6],4.4,0.3
CCCCCCCCCCCCCCCCSc1nc(NCCCN2CCN(C)CC2)nc(SCCCCCCCCCCCCCCC)n1 [Compound S15S16D9],0.5,0.3
CCCCCCCCCCCCNc1nc(NCCCCCC)nc(NCCN(CC)CC)n1 [Compound N6N12D7],0.0,0.0
CCCCCCCCCCCCCCCNc1nc(NCCCCCCCCCCCCCCC)nc(NCCCN2CCOCC2)n1 [Compound N15N15D8],0.0,0.0
CCCCCCCCCCCCCCCCCCNc1nc(NCCCCCCCC)nc(NCCCN(C)C)n1 [Compound N8N18D6],4.1,2.2
CCCCCCCCCCCCN(CCCCCCCCCCCC)c1nc(NCCCCCC)nc(NCCN2CCOCC2)n1 [N6^2N12D2],0.0,0.2
CCCCCCCCCCCCCCSc1nc(NCCN2CCN(C)CC2)nc(SCCCCCCCCCCCCCC)n1 [Compound S14S14D5],0.0,0.0
CCCCCCCCCCCCCCCSc1nc(NCCCN2CCOCC2)nc(SCCCCCCCCCCC)n1 [Compound S11S15D8],2.1,3.0
CCCCCCCCCCCCCNc1nc(NCCCCCCCCC)nc(NCCCN(C)C)n1 [Compound N9N13D6],0.4,0.0
CCCCCCCCCCCCCCCCNc1nc(NCCCCCCCCCCC)nc(NCCN2CCCCC2)n1 [Compound N11N16D4],0.0,0.1
CCCCCCCCCCCCNc1nc(NCCCCCCC)nc(NCC2CCN(C)CC2)n1 [Compound N7N12D10],0.8,1.4

# From patent US20230123334A1, “AMINO LIPID COMPOUND, PREPARATION METHOD THEREFOR, AND APPLICATION THEREOF” (SHENZHEN SHENXIN BIOTECHNOLOGY CO., LTD., priority 2020, published 2023)
